Laboratory results published in PubChem BioAssay (NCI).
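A five-concentration, 48-hour dose response in 96-well plates underlies each endpoint, interpolated linearly between surrounding concentrations. GI50 = concentration required for 50% inhibition of growth. Definition used: TGI = concentration required for complete inhibition of growth.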

How the values were obtained:
Experiment in all cases: DTP human tumour cell line panel, 48 h
[1] = system: SK-OV-3 ovarian
[2] = system: MDA-MB-231 breast
[3] = system: BT-549 breast
[4] = system: HL-60(TB) leukemia
[5] = system: RPMI-8226 leukemia
[6] = system: TK-10 renal
[7] = system: SF-268 CNS
[8] = system: SK-MEL-2 melanoma
[9] = system: U251 CNS
[10] = system: HOP-92 NSCLC
[11] = system: M14 melanoma
[12] = system: MOLT-4 leukemia
[13] = system: SK-MEL-5 melanoma
[14] = system: CAKI-1 renal
[15] = system: LOX IMVI melanoma
[16] = system: SK-MEL-28 melanoma
[17] = system: UO-31 renal
[18] = system: HOP-62 NSCLC
[19] = system: UACC-62 melanoma
[20] = system: SW-620 colon
[21] = system: SR leukemia
[22] = system: UACC-257 melanoma
[23] = system: ACHN renal
[24] = system: SN12C renal
[25] = system: DU-145 prostate
[26] = system: MALME-3M melanoma
[27] = system: A549 NSCLC
[28] = system: A498 renal
[29] = system: CCRF-CEM leukemia
[30] = system: IGROV1 ovarian
[31] = system: OVCAR-4 ovarian
[32] = system: MDA-N
[33] = system: HT29 colon
[34] = system: NCI/ADR-RES ovarian
[35] = system: T-47D breast
[36] = system: 786-0 renal
[37] = system: NCI-H23 lung
[38] = system: HCT-15 colon
[39] = system: SNB-75 CNS
[40] = system: NCI-H460 lung
[41] = system: HCC-2998 colon
[42] = system: OVCAR-3 ovarian
[43] = system: OVCAR-8 ovarian
[44] = system: MCF7 breast
[45] = system: K-562 leukemia
[46] = system: SF-539 CNS
[47] = system: HCT-116 colon
[48] = system: PC-3 prostate
[49] = system: HS 578T breast
[50] = system: MDA-MB-435
[51] = system: SNB-19 CNS
[52] = system: COLO 205 colon
[53] = system: OVCAR-5 ovarian
[54] = system: SF-295 CNS
[55] = system: KM12 colon
[56] = system: NCI-H522 lung
[57] = system: EKVX NSCLC
[58] = system: NCI-H226 lung

Cc1cc2c(cc1O)CC[C@@H]1[C@@H]2CC[C@]2(C)[C@@H](O)CC[C@@H]12
TGI [1]: 34.1 µM
TGI [2]: 21.8 µM
TGI [3]: 20.1 µM
TGI [4]: 5.54 µM
TGI [5]: 19.2 µM
TGI [6]: 91.5 µM
TGI [7]: 46.8 µM
TGI [8]: 19.8 µM
TGI [9]: 18.2 µM
TGI [10]: 30.4 µM
TGI [11]: 21.4 µM
TGI [12]: 17.7 µM
TGI [13]: 16.1 µM
TGI [14]: 59.6 µM
TGI [15]: 27 µM
TGI [16]: 27.3 µM
TGI [17]: 37.6 µM
GI50 [18]: 10.9 µM
TGI [18]: 24.9 µM
GI50 [19]: 5.39 µM
TGI [19]: 21 µM
TGI [20]: 37.5 µM
TGI [21]: 5.5 µM
TGI [22]: 42.5 µM
TGI [23]: 51.9 µM
TGI [24]: 31.2 µM
GI50 [25]: 16 µM
TGI [25]: 36.1 µM
TGI [26]: 19.4 µM
TGI [27]: > 100 µM
TGI [28]: 37.9 µM
TGI [29]: 27.4 µM
TGI [30]: 45.4 µM
TGI [31]: 29.2 µM
TGI [32]: 4.39 µM
TGI [33]: 31.6 µM
TGI [34]: 27.2 µM
TGI [35]: 38.9 µM
TGI [36]: 30.9 µM
TGI [37]: 35 µM
TGI [38]: 16.4 µM
TGI [39]: 23.9 µM
TGI [40]: 29.8 µM
TGI [41]: 24.1 µM
GI50 [42]: 9.14 µM
TGI [42]: 22.1 µM
TGI [43]: 51.7 µM
TGI [44]: 26.1 µM
TGI [45]: 13.2 µM
GI50 [46]: 7.46 µM
TGI [46]: 19.8 µM
GI50 [47]: 3.63 µM
TGI [47]: 13.4 µM
TGI [48]: 37.7 µM
TGI [49]: 7.17 µM
GI50 [50]: 1.8 µM
TGI [50]: 3.65 µM
TGI [51]: 33.1 µM
TGI [52]: 32.5 µM
TGI [53]: 71.9 µM
TGI [54]: 20.3 µM
TGI [55]: 15.7 µM
TGI [56]: 23.4 µM

COc1ccc(C(=O)N2CCN(c3ccc4c(c3)OCC(=O)N4)CC2)cc1
TGI [1]: > 100 µM
TGI [2]: > 100 µM
TGI [57]: > 100 µM
TGI [3]: > 100 µM
TGI [4]: > 100 µM
TGI [5]: > 100 µM
TGI [6]: > 100 µM
TGI [7]: > 100 µM
TGI [58]: > 100 µM
TGI [8]: > 100 µM
TGI [9]: > 100 µM
TGI [10]: > 100 µM
TGI [11]: > 100 µM
TGI [12]: > 100 µM
TGI [13]: > 100 µM
TGI [14]: > 100 µM
TGI [15]: > 100 µM
TGI [16]: > 100 µM
TGI [17]: > 100 µM
TGI [18]: > 100 µM
TGI [19]: > 100 µM
TGI [20]: > 100 µM
TGI [21]: > 100 µM
TGI [22]: > 100 µM
TGI [23]: > 100 µM
TGI [24]: > 100 µM
TGI [25]: > 100 µM
TGI [26]: > 100 µM
TGI [27]: > 100 µM
TGI [29]: > 100 µM
TGI [30]: > 100 µM
TGI [31]: > 100 µM
TGI [32]: > 100 µM
TGI [33]: > 100 µM
TGI [34]: > 100 µM
TGI [35]: > 100 µM
TGI [36]: > 100 µM
TGI [37]: > 100 µM
TGI [38]: > 100 µM
TGI [39]: > 100 µM
TGI [40]: > 100 µM
TGI [41]: > 100 µM
TGI [42]: > 100 µM
TGI [43]: > 100 µM
TGI [44]: > 100 µM
TGI [46]: > 100 µM
TGI [47]: > 100 µM
TGI [48]: > 100 µM
TGI [49]: > 100 µM
TGI [50]: > 100 µM
TGI [51]: > 100 µM
TGI [52]: > 100 µM
TGI [53]: > 100 µM
TGI [54]: > 100 µM
TGI [55]: > 100 µM
TGI [56]: > 100 µM
